Measured values: the CheMixHub ionic liquid set

Experiment: xn = mol fraction of the nth substance listed

OC1OC[C@@H](O)[C@H](O)[C@H]1O (stereo not given in full) + CCCCCCCCCCCCCCCC[N+](C)(C)C.[Br-] + O
viscosity [mPa·s], 100 kPa
Settings | 298.15 K | 308.15 K | 318.15 K
x2 = 7.19e-06, x1 = 0.001926 | 0.934 | 0.772 | 0.642
x2 = 7.19e-06, x1 = 0.002323 | 0.941 | 0.779 | 0.647
x2 = 7.19e-06, x1 = 0.002648 | 0.948 | 0.784 | 0.651
x2 = 7.2e-06, x1 = 0.0009003 | 0.914 | 0.756 | 0.629
x2 = 7.2e-06, x1 = 0.001314 | 0.922 | 0.763 | 0.634
x2 = 7.2e-06, x1 = 0.001634 | 0.928 | 0.768 | 0.638
x2 = 1.438e-05, x1 = 0.002366 | 0.948 | 0.784 | 0.651
x2 = 1.438e-05, x1 = 0.002756 | 0.957 | 0.791 | 0.656
x2 = 1.439e-05, x1 = 0.001528 | 0.931 | 0.77 | 0.639
x2 = 1.439e-05, x1 = 0.001964 | 0.94 | 0.777 | 0.645
x2 = 1.44e-05, x1 = 0.0009094 | 0.918 | 0.759 | 0.63
x2 = 1.44e-05, x1 = 0.001186 | 0.923 | 0.764 | 0.634
x2 = 2.157e-05, x1 = 0.002446 | 0.955 | 0.79 | 0.654
x2 = 2.157e-05, x1 = 0.002688 | 0.961 | 0.795 | 0.658
x2 = 2.158e-05, x1 = 0.00199 | 0.945 | 0.782 | 0.647
x2 = 2.159e-05, x1 = 0.001338 | 0.93 | 0.77 | 0.637
x2 = 2.159e-05, x1 = 0.001717 | 0.939 | 0.777 | 0.643
x2 = 2.16e-05, x1 = 0.0009887 | 0.923 | 0.763 | 0.632

CCCCCC[n+]1ccn(C)c1.O=[N+]([O-])c1cn[n-]c1 + CCCCCCCCCCCCCC[P+](CCCCCC)(CCCCCC)CCCCCC.O=S(=O)([N-]S(=O)(=O)C(F)(F)F)C(F)(F)F
Settings | viscosity [mPa·s]
283.15 K, 100 kPa, x2 = 0.899 | 820

CSCC[C@H](N)C(=O)O + CCCCCCCCCCCC[N+](C)(C)C.[Br-] + O
viscosity [mPa·s], 101 kPa
Settings | 293.15 K | 298.15 K | 303.15 K | 308.15 K | 313.15 K
x1 = 0.0001801, x2 = 0.0001083 | 1.019 | 0.904 | 0.811 | 0.746 | 0.677
x1 = 0.0001801, x2 = 0.0001624 | 1.024 | 0.907 | 0.814 | 0.749 | 0.68
x1 = 0.0001801, x2 = 0.0002165 | 1.03 | 0.909 | 0.816 | 0.75 | 0.681
x1 = 0.0001801, x2 = 0.0002706 | 1.034 | 0.912 | 0.818 | 0.752 | 0.683
x1 = 0.0001801, x2 = 0.0003247 | 1.04 | 0.915 | 0.82 | 0.754 | 0.685
x1 = 0.0001801, x2 = 0.0003788 | 1.044 | 0.919 | 0.823 | 0.756 | 0.687
x1 = 0.0001801, x2 = 0.0004329 | 1.046 | 0.922 | 0.829 | 0.758 | 0.689
x1 = 0.0001801, x2 = 0.0004869 | 1.049 | 0.927 | 0.834 | 0.76 | 0.691
x1 = 0.0001801, x2 = 0.000541 | 1.052 | 0.931 | 0.84 | 0.762 | 0.694
x1 = 0.0001802, x2 = 5.413e-05 | 1.013 | 0.9 | 0.81 | 0.745 | 0.672
x1 = 0.0008997, x2 = 0.0005439 | 1.07 | 0.912 | 0.836 | 0.761 | 0.683
x1 = 0.0008998, x2 = 0.0003808 | 1.061 | 0.906 | 0.819 | 0.751 | 0.672
x1 = 0.0008998, x2 = 0.0004351 | 1.063 | 0.908 | 0.822 | 0.753 | 0.675
x1 = 0.0008998, x2 = 0.0004895 | 1.066 | 0.91 | 0.831 | 0.756 | 0.679
x1 = 0.0008999, x2 = 0.000272 | 1.057 | 0.902 | 0.812 | 0.746 | 0.668
x1 = 0.0008999, x2 = 0.0003264 | 1.059 | 0.904 | 0.815 | 0.748 | 0.67
x1 = 0.0009, x2 = 0.0001632 | 1.053 | 0.899 | 0.809 | 0.74 | 0.663
x1 = 0.0009, x2 = 0.0002176 | 1.054 | 0.901 | 0.81 | 0.743 | 0.666
x1 = 0.0009001, x2 = 5.441e-05 | 1.048 | 0.894 | 0.805 | 0.732 | 0.658
x1 = 0.0009001, x2 = 0.0001088 | 1.051 | 0.896 | 0.807 | 0.735 | 0.66
x1 = 0.001798, x2 = 0.0001643 | 1.062 | 0.911 | 0.822 | 0.745 | 0.675
x1 = 0.001798, x2 = 0.000219 | 1.064 | 0.913 | 0.824 | 0.747 | 0.676
x1 = 0.001798, x2 = 0.0002738 | 1.066 | 0.916 | 0.827 | 0.749 | 0.678
x1 = 0.001798, x2 = 0.0003285 | 1.069 | 0.919 | 0.83 | 0.751 | 0.681
x1 = 0.001798, x2 = 0.0003832 | 1.073 | 0.921 | 0.832 | 0.756 | 0.683
x1 = 0.001798, x2 = 0.0004379 | 1.076 | 0.927 | 0.836 | 0.76 | 0.686
x1 = 0.001798, x2 = 0.0004927 | 1.079 | 0.932 | 0.84 | 0.764 | 0.692
x1 = 0.001798, x2 = 0.0005474 | 1.083 | 0.937 | 0.844 | 0.77 | 0.698
x1 = 0.001799, x2 = 5.476e-05 | 1.059 | 0.906 | 0.818 | 0.741 | 0.671
x1 = 0.001799, x2 = 0.0001095 | 1.06 | 0.909 | 0.82 | 0.743 | 0.673
